In patent US20220081412A1, “QUINOLINYL-PYRAZINE-CARBOXAMIDE COMPOUNDS AND USES THEREOF” (The Regents of the University of Michigan, priority 2018, published 2022):

System: MIA PaCa-2 cells
Assay: Bru-seq analysis for nascent RNA synthesis (log2FC of genes, GSEA gene sets)
Format: cell-based, human
Conditions: 4 h
[1] = PYEON_CANCER_HEAD_AND_NECK_VS_CERVICAL_UP, C2, downregulated
[2] = RIGGINS_TAMOXIFEN_RESISTANCE_DN, C2, downregulated
[3] = SCHLOSSER_MYC_TARGETS_AND_SERUM_RESPONSE_DN, C2, downregulated
[4] = SENGUPTA_NASOPHARYNGEAL_CARCINOMA_UP, C2, downregulated
[5] = SENGUPTA_NASOPHARYNGEAL_CARCINOMA_WITH_LMP1_UP, C2, downregulated
[6] = SHEN_SMARCA2_TARGETS_UP, C2, downregulated
[7] = TAKEDA_TARGETS_OF_NUP98_HOXA9_FUSION_3D_UP, C2, downregulated
[8] = TAKEDA_TARGETS_OF_NUP98_HOXA9_FUSION_6HR_UP, C2, downregulated
[9] = TCANNTGAY_SREBP1_01, TFBT, upregulated
[10] = TGANNYRGCA_TCF11MAFG_01, TFBT, upregulated
[11] = TTTNNANAGCYR_UNKNOWN, TFBT, upregulated
[12] = YANG_BREAST_CANCER_ESR1_LASER_DN, C2, downregulated
[13] = ZHANG_BREAST_CANCER_PROGENITORS_UP, C2, downregulated
[14] = ZHANG_TLX_TARGETS_36HR_DN, C2, downregulated
[15] = ZHANG_TLX_TARGETS_DN, C2, downregulated
[16] = ZHENG_BOUND_BY_FOXP3, C2, downregulated
[17] = top upregulated noncoding genes, MIA PaCa-2 cells
[18] = top upregulated protein-coding genes, MIA PaCa-2 cells

Q: Which ES (OCT1Q5_01, TFBT, upregulated) does the source give for `Cc1cc(NC(=O)c2cnc(N3CCNCC3)cn2)c2ncccc2c1` [J28, N-(6-methylquinolin-8-yl)-5-(piperazin-1-yl)pyrazine-2-carboxamide] here?
A: 0.383

Q: And the NES (OCT1Q5_01, TFBT, upregulated)?
A: 1.568

Q: And the ES (PEA3_Q6, TFBT, upregulated)?
A: 0.389

Q: And the NES (PEA3_Q6, TFBT, upregulated)?
A: 1.645

Q: And the log2FC (PHLDB2, downregulated protein-coding gene)?
A: −0.93

Q: And the log2FC (PTX3, downregulated protein-coding gene)?
A: −1.04

Q: And the ES [1]?
A: −0.405

Q: What about the NES [1] of the same molecule?
A: −1.998

Q: And the ES [2]?
A: −0.420

Q: And the NES [2]?
A: −1.996

Q: What about the log2FC (RNVU1-6, downregulated noncoding gene) of the same molecule?
A: −1.29

Q: What about the ES [3] of the same molecule?
A: −0.485

Q: And the NES [3]?
A: −1.909

Q: What about the ES [4] of the same molecule?
A: −0.477

Q: What about the NES [4] of the same molecule?
A: −2.454

Q: What about the ES [5] of the same molecule?
A: −0.503

Q: And the NES [5]?
A: −2.612

Q: And the ES [6]?
A: −0.402

Q: What about the NES [6] of the same molecule?
A: −2.248

Q: What about the log2FC (SLCO1B3, downregulated protein-coding gene) of the same molecule?
A: −0.96

Q: And the log2FC (SPTY2D1-AS1, downregulated protein-coding gene)?
A: −0.93

Q: And the ES (SREBP1_01, TFBT, upregulated)?
A: 0.417

Q: What about the NES (SREBP1_01, TFBT, upregulated) of the same molecule?
A: 1.757

Q: And the ES (SREBP1_Q6, TFBT, upregulated)?
A: 0.386

Q: What about the NES (SREBP1_Q6, TFBT, upregulated) of the same molecule?
A: 1.611

Q: And the ES (SRF_01, TFBT, upregulated)?
A: 0.541

Q: And the NES (SRF_01, TFBT, upregulated)?
A: 1.708

Q: And the log2FC (SRRM1P2, downregulated noncoding gene)?
A: −0.97

Q: What about the ES [7] of the same molecule?
A: −0.469

Q: And the NES [7]?
A: −1.940

Q: And the ES [8]?
A: −0.667

Q: What about the NES [8] of the same molecule?
A: −2.252

Q: What about the ES [9] of the same molecule?
A: 0.399

Q: What about the NES [9] of the same molecule?
A: 1.843

Q: What about the log2FC (TEX15, downregulated protein-coding gene) of the same molecule?
A: −0.95

Q: What about the ES [10] of the same molecule?
A: 0.359

Q: What about the NES [10] of the same molecule?
A: 1.552

Q: And the ES [11]?
A: 0.502

Q: What about the NES [11] of the same molecule?
A: 1.859

Q: What about the log2FC (TXNRD3NB, downregulated protein-coding gene) of the same molecule?
A: −0.86

Q: What about the log2FC (WWTR1-IT1, downregulated noncoding gene) of the same molecule?
A: −1.14

Q: And the ES [12]?
A: −0.521

Q: What about the NES [12] of the same molecule?
A: −1.924

Q: And the ES [13]?
A: −0.342

Q: And the NES [13]?
A: −1.914

Q: What about the ES [14] of the same molecule?
A: −0.518

Q: What about the NES [14] of the same molecule?
A: −2.618

Q: What about the ES [15] of the same molecule?
A: −0.457

Q: And the NES [15]?
A: −2.032

Q: And the ES [16]?
A: −0.362

Q: What about the NES [16] of the same molecule?
A: −1.929

Q: What about the log2FC (ZNF37A, downregulated protein-coding gene) of the same molecule?
A: −0.93

Q: What about the log2FC (ZNF816, downregulated protein-coding gene) of the same molecule?
A: −1.58

Q: What about the “log2FC AC027307.3” value [17] of the same molecule?
A: 1.20

Q: And the “log2FC AC068473.5” value [17]?
A: 0.84

Q: What about the “log2FC AC090826.2” value [17] of the same molecule?
A: 0.90

Q: What about the “log2FC AC092279.1” value [17] of the same molecule?
A: 0.84

Q: And the “log2FC AC106886.2” value [17]?
A: 1.10

Q: And the “log2FC AC141586.1” value [17]?
A: 1.01

Q: What about the “log2FC AC239868.4” value [17] of the same molecule?
A: 0.91

Q: What about the “log2FC AL049543.1” value [17] of the same molecule?
A: 1.21

Q: And the “log2FC AP001065.1” value [17]?
A: 0.95

Q: And the “log2FC KRT18P31” value [17]?
A: 0.89

Q: And the “log2FC PCBP2P1” value [17]?
A: 0.84

Q: What about the “log2FC RN7SL16P” value [17] of the same molecule?
A: 1.19

Q: What about the “log2FC RPS16P5” value [17] of the same molecule?
A: 0.97

Q: What about the “log2FC SLC2A1-AS1” value [17] of the same molecule?
A: 1.22

Q: What about the “log2FC SNHG20” value [17] of the same molecule?
A: 1.06

Q: What about the “log2FC SNORA3B” value [17] of the same molecule?
A: 0.88

Q: What about the “log2FC SNORA65” value [17] of the same molecule?
A: 1.28

Q: And the “log2FC SNORA73B” value [17]?
A: 0.91

Q: What about the “log2FC SNORA74D” value [17] of the same molecule?
A: 1.76

Q: And the “log2FC SNORD15A” value [17]?
A: 0.86

Q: And the “log2FC SNORD15B” value [17]?
A: 0.90

Q: What about the “log2FC SNORD17” value [17] of the same molecule?
A: 1.17

Q: And the “log2FC ST7-AS1” value [17]?
A: 0.95

Q: And the “log2FC SYPL1P2” value [17]?
A: 0.85

Q: What about the “log2FC TDRKH-AS1” value [17] of the same molecule?
A: 0.90

Q: And the “log2FC ABHD14B” value [18]?
A: 1.28

Q: What about the “log2FC AC099811.2” value [18] of the same molecule?
A: 1.35

Q: What about the “log2FC APRT” value [18] of the same molecule?
A: 1.39

Q: What about the “log2FC COMMD5” value [18] of the same molecule?
A: 1.31

Q: And the “log2FC DBP” value [18]?
A: 1.90

Q: What about the “log2FC DDX28” value [18] of the same molecule?
A: 1.46

Q: And the “log2FC DHCR7” value [18]?
A: 1.44

Q: And the “log2FC DOLK” value [18]?
A: 1.70

Q: And the “log2FC FASN” value [18]?
A: 1.28

Q: And the “log2FC H2AFX” value [18]?
A: 1.36

Q: What about the “log2FC HIST1H1D” value [18] of the same molecule?
A: 1.36

Q: What about the “log2FC HIST1H2BF” value [18] of the same molecule?
A: 1.63

Q: And the “log2FC HIST1H3B” value [18]?
A: 1.82

Q: And the “log2FC HIST1H3C” value [18]?
A: 1.45

Q: What about the “log2FC HIST1H3I” value [18] of the same molecule?
A: 1.28

Q: And the “log2FC INSIG1” value [18]?
A: 1.65

Q: What about the “log2FC MVK” value [18] of the same molecule?
A: 1.37

Q: And the “log2FC ORMDL3” value [18]?
A: 1.39

Q: What about the “log2FC PCYT2” value [18] of the same molecule?
A: 2.03

Q: And the “log2FC POP7” value [18]?
A: 1.30

Q: And the “log2FC RNF26” value [18]?
A: 1.71

Q: And the “log2FC SCD” value [18]?
A: 1.67

Q: And the “log2FC SDR39U1” value [18]?
A: 1.67
